{"source": "patent US9272985B2", "about": "“Antibacterial hydroxyphenyl compound” (FAB PHARMA S.A.S., priority 2009, dated 2016)", "key": {"[1]": {"target": "human norepinephrine transporter (Homo sapiens, UniProt P23975)", "sequence (P23975 whole entry)": "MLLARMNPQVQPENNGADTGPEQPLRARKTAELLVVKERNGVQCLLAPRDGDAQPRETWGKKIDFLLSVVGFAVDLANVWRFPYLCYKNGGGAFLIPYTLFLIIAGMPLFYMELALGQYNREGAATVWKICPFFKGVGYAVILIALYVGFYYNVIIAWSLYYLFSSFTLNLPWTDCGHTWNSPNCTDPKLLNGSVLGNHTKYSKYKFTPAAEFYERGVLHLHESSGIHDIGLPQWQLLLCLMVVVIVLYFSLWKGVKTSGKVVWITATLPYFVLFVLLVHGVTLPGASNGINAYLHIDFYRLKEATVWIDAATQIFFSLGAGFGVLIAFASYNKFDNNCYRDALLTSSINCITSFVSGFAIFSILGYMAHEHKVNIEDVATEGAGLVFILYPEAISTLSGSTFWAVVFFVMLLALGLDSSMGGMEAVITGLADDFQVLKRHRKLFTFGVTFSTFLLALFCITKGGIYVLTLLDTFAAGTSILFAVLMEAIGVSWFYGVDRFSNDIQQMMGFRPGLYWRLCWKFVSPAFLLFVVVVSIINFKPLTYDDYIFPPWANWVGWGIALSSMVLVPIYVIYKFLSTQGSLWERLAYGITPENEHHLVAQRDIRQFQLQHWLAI", "assay": "In vitro binding/enzyme panel: human norepinephrine transporter"}, "S. aureus CIP 54.146": {"system": "S. aureus CIP 54.146", "assay": "MIC determination using broth microdilution method", "assay_type": "cell-based", "details": "Staphylococcus aureus, CIP54 / MSSA; MSSA CIP 54.146; range over a number of batches; read-out: MIC (μg/ml) (Broth microdilution) S. aureus CIP 54.146", "protocol": "The compound of the invention is a useful antibacterial agent having a selective spectrum of activity in vitro against bacterial strains relying on FabI and related targets. […] The activity is presented as Minimum Inhibitory Concentration (MIC) expressed in μg/ml and was determined using broth microdilution or Agar dilution methods.\nAntibacterial activity was determined on MSSA CIP 54.146 provided by the Centre de Ressources Biologiques de l'Institut Pasteur\nThis protocol is compliant with Clinical Laboratory Standards Institute (CLSI) methodology as described in M7-A7 document of the CLSI. The compound to be tested is diluted according to a geometric series of reason 2 in pure DMSO. Dilutions are transferred in sterile polystyrene microplates, followed by mid-log phase bacteria in cation-adjusted Muller-Hinton broth (ca-MHB, Fluka, Reference 90922) with a final inoculum of 5×10^5 cfu/ml. Microplates are incubated overnight at 35° C. MIC is defined as the lowest concentration of antimicrobial agent that completely prevents visible bacterial growth. All manipulations, but compound handling (in pure DMSO), are performed under sterile conditions. The final concentration of DMSO in the plates is 2%."}, "[2]": {"assay": "In vivo studies in rats and dogs (adverse effects)"}, "[3]": {"system": "MSSA, MRSA and VISA infections", "assay": "Murine infection model", "assay_type": "in vivo", "from_the_text": "(§1) Such increased solubility provides the significant advantage of allowing the compound of the invention to be administered intravenously."}, "[4]": {"assay": "QT interval in conscious dogs after single intravenous infusion", "assay_type": "in vivo"}, "[5]": {"system": "target bacterial populations", "assay": "Resistance and killing profile in target bacterial populations", "assay_type": "cell-based"}, "[6]": {"assay": "Aqueous solubility at pH 7.4 buffer", "assay_type": "physicochemical", "details": "for solubility at 24 h: aqueous buffer, thermodynamic from solid, 20° C.", "protocol": "(§2) For each medium, the saturation of the medium is obtained by adding an excess of investigated compound to a given volume of test medium. The suspension is stirred at 20° C. for 24 h, the supernatant is then isolated and diluted to allow its injection into a chromatographic system. The concentration of the compound in solution for each medium is determined by external standardization."}, "[7]": {"assay": "Formulated solubility in 20% hydroxypropyl beta cyclodextrin aqueous solution with 5% dextrose", "assay_type": "physicochemical", "details": "for solubility at 24 h: aqueous with cosolvent or surfactant or cyclodextrin, thermodynamic from solid, 20% hydroxypropyl beta cyclodextrin aqueous solution with 5% dextrose, 20° C.", "protocol": "as §2\nSolubility was also investigated in a 20% hydroxypropyl beta cyclodextrin aqueous solution with 5% dextrose and the results are shown in Table 4."}, "[8]": {"assay": "Panel of 112 in vitro binding assays and 42 in vitro enzyme assays", "details": "except human norepinephrine transporter"}, "[9]": {"system": "MSSA, MRSA, VISA and VRSA strains", "assay": "In vitro activity against pathogenic S. aureus strains", "assay_type": "cell-based, Staphylococcus aureus", "details": "several pathogenic strains", "from_the_text": "as §1"}, "E. coli FabI enzyme": {"target": "E. coli FabI enzyme (Escherichia coli, UniProt P0AEK4)", "sequence (P0AEK4 whole entry)": "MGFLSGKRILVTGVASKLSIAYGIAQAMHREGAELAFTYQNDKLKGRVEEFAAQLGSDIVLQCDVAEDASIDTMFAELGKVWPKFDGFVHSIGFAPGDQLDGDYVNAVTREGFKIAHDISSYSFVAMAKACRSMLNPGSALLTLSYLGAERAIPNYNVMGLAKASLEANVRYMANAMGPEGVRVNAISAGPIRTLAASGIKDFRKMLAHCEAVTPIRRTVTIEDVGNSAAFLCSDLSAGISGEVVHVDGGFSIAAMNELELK", "assay": "In vitro inhibition of recombinant E. coli FabI enzyme", "assay_type": "biochemical", "protocol": "(§3) Compound inhibitory activity of FabI enzyme is measured in vitro by the IC50 determination using a fluorescence based assay.\n(§4) The biochemical activity of the FabI enzyme is assessed using the following method.\nThe assay buffer “AB” contained 50 mM ADA (N-(2-acetamido)iminodiacetic acid monosodium salt) pH 6.5, 1 m M dithiothreitol, 0.006% Triton-X100 and 50 mM NaCl. The following components are added in a white polystyrene Costar plate (Ref 3912) up to a final volume of 55.5 μL: 1.5 μL DMSO or inhibitor dissolved in DMSO and 54 μL of a FabI/NADPH/NADP+ mixture in AB. After 60 min of pre-incubation at room temperature, the reaction is started by addition of 5 μL of trans-2-octenoyl N-acetylcysteamine thioester (t-o-NAC) to a final volume of 60.5 μL. […] Fluorescence intensity of NADPH (λex=360 nm, λem=520 nm) is measured immediately after t-O-NAC addition (T0), and approximately 50 min later (T50) by a Fluostar Optima (BMG) so as to achieve ±30% of NADPH conversion. Enzyme activity is calculated by first subtracting T0 signal to T50 and then subtracting background signal (FabI=0). Percentages of inhibition are calculated against untreated samples (Inhibitor=0) and IC50 are fitted to a classical Langmuir equilibrium model using XLFIT (IDBS)."}, "hERG": {"target": "hERG (Homo sapiens, UniProt Q12809)", "sequence (Q12809 whole entry)": "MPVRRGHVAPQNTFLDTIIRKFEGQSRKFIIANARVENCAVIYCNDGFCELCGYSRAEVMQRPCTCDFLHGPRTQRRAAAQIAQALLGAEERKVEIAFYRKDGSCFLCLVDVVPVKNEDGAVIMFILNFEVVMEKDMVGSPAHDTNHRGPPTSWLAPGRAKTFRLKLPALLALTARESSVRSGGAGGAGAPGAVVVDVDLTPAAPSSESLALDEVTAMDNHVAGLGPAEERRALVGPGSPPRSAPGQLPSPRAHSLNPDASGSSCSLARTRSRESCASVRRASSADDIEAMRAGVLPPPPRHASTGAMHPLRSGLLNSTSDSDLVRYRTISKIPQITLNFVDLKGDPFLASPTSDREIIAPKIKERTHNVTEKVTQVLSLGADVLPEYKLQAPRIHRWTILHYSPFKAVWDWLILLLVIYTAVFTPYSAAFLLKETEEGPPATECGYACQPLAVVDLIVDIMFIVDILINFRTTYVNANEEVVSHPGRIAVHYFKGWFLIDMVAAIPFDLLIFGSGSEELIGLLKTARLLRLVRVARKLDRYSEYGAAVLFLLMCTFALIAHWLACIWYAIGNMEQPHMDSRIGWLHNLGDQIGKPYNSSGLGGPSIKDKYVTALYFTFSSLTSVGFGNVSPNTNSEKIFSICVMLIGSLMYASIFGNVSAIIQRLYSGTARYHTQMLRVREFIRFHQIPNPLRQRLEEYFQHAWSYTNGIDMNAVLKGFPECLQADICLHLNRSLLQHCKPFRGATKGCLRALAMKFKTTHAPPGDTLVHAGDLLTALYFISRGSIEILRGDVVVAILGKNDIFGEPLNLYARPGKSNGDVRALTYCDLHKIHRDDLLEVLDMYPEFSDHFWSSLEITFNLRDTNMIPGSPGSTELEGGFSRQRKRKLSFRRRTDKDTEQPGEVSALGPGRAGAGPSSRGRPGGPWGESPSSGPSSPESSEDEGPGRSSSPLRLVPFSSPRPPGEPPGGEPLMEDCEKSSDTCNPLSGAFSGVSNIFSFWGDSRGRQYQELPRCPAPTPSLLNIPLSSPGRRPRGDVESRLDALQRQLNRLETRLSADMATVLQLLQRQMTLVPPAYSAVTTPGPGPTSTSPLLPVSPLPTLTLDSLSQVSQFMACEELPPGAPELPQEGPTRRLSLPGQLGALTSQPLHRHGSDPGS", "assay": "hERG tail current amplitude in vitro", "assay_type": "cell-based", "details": "after rundown subtraction"}, "[10]": {"assay": "Functional observation battery and evaluation of respiration function in rats", "assay_type": "in vivo", "details": "compared to vehicle only"}, "FabI from S. aureus": {"target": "T1, FabI from S. aureus (Staphylococcus aureus, UniProt Q6GI75)", "T1 construct": "made in house", "T1 sequence (Q6GI75 1-256)": "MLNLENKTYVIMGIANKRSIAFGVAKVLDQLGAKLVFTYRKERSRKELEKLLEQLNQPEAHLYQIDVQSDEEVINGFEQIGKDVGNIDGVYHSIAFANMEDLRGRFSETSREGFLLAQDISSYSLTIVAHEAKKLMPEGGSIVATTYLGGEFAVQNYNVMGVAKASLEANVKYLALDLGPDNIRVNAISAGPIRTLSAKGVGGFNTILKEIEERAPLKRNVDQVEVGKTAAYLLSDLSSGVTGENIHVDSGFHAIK", "assay": "In vitro inhibition of recombinant S. aureus FabI enzyme (fluorescence based assay)", "assay_type": "biochemical", "protocol": "as §3\nThe protein FabI from S. aureus is prepared and purified using standard methods for recombinant protein expression after cloning of the gene in a prokaryotic expression vector.\nas §4\nThe assay buffer “AB” contained 50 mM ADA (N-(2-acetamido)iminodiacetic acid monosodium salt) pH 6.5, 1 m M dithiothreitol, 0.006% Triton-X100 and 50 mM NaCl. The following components are added in a white polystyrene Costar plate (Ref 3912) up to a final volume of 55.5 μL: 1.5 μL DMSO or inhibitor dissolved in DMSO and 54 μL of a FabI/NADPH/NADP+ mixture in AB. […] Fluorescence intensity of NADPH (λex=360 nm, λem=520 nm) is measured immediately after t-O-NAC addition (T0), and approximately 50 min later (T50) by a Fluostar Optima (BMG) so as to achieve ±30% of NADPH conversion. Enzyme activity is calculated by first subtracting T0 signal to T50 and then subtracting background signal (FabI=0). Percentages of inhibition are calculated against untreated samples (Inhibitor=0) and IC50 are fitted to a classical Langmuir equilibrium model using XLFIT (IDBS)."}, "[11]": {"system": "Streptococcus and Enterococcus", "assay": "Activity against other Gram-positive pathogens not dependent upon FabI", "assay_type": "cell-based"}, "[12]": {"details": "rats, intravenous; cited from earlier work"}}, "note": "Where two headings read alike, the source gives them in different places.", "data": [{"smiles": "CCc1cc(O)c(Oc2ccc(C(N)=O)cc2F)cc1F", "note": "[Example 1, 4-(4-Ethyl-5-fluoro-2-hydroxyphenoxy)-3-fluorobenzamide]", "values": [{"measurement": "Inhibition of human norepinephrine transporter", "setting": "[1]", "result": 88, "unit": "%"}, {"measurement": "MIC", "setting": "S. aureus CIP 54.146", "result": "0.063 to 0.125", "unit": "µg/mL"}, {"measurement": "Adverse effects during in vivo studies", "setting": "[2]", "result": "no major adverse effects were reported"}, {"measurement": "In vivo activity in a murine model", "setting": "[3]", "result": "active in vivo"}, {"measurement": "Corrected QT after the end of infusion versus control group", "setting": "[4]; after the end of infusion", "result": "generally lower than in the control group"}, {"measurement": "QT interval prolongation", "setting": "[4]; single intravenous infusion at 25, 50 and 100 mg/kg", "result": "no QT interval prolongation was observed"}, {"measurement": "Type of antibacterial effect", "setting": "[5]; target bacterial populations", "result": "bacteriostatic or slow bactericidal effect"}, {"measurement": "Spontaneous mutation rate towards drug resistance", "setting": "[5]; target bacterial populations exposed to the compound", "result": "approximately 10^−9"}, {"measurement": "Cross resistance with glycopeptides (Vancomycin) and oxazolidinones (Linezolid)", "setting": "[5]; target microbial populations", "result": "no cross resistance"}, {"measurement": "Fold more soluble than comparative example 2", "setting": "[6]", "result": "two fold"}, {"measurement": "solubility at 24 h", "setting": "[6]", "result": 16, "unit": "µg/mL"}, {"measurement": "Fold more soluble than comparative example 2", "setting": "[7]; 20% hydroxypropyl beta cyclodextrin with 5% dextrose", "result": "~5", "unit": "fold"}, {"measurement": "solubility at 24 h", "setting": "[7]", "result": 11300, "unit": "µg/mL"}, {"measurement": "Affinity or activity in 112 in vitro binding assays and 42 in vitro enzyme assays", "setting": "[8]", "result": "devoid of any significant affinity or activity"}, {"measurement": "In vitro activity against MSSA, MRSA, VISA and VRSA strains", "setting": "[9]", "result": "highly active"}, {"measurement": "IC50", "setting": "E. coli FabI enzyme", "result": "0.058 to 0.068", "unit": "µM"}, {"measurement": "inhibition at 30 µM", "setting": "hERG", "result": 35.3, "unit": "%"}, {"measurement": "Tolerability in functional observation battery and respiration function assays", "setting": "[10]", "result": "well tolerated"}, {"measurement": "IC50", "setting": "FabI from S. aureus", "result": "0.012 to 0.014", "unit": "µM"}, {"measurement": "Activity against Streptococcus and Enterococcus", "setting": "[11]", "result": "no activity"}]}, {"smiles": "CCc1cc(O)c(Oc2cccnc2F)cc1F", "note": "[Comparative Example 2, 5-Ethyl-4-fluoro-2-(2-fluoropyridin-3yloxy)phenol, reference compound]", "values": [{"measurement": "MIC", "setting": "S. aureus CIP 54.146", "result": 0.063, "unit": "µg/mL"}, {"measurement": "solubility at 24 h", "setting": "[6]", "result": 8, "unit": "µg/mL"}, {"measurement": "solubility at 24 h", "setting": "[7]", "result": 2400, "unit": "µg/mL"}, {"measurement": "IC50", "setting": "E. coli FabI enzyme; recombinant E. coli FabI, range over a number of batches, read-out: FabI Inhibition IC50 (μM) E. coli", "result": "0.019 to 0.065", "unit": "µM"}, {"measurement": "IC50", "setting": "FabI from S. aureus; recombinant S. aureus FabI, range over a number of batches, read-out: FabI Inhibition IC50 (μM) S. aureus", "result": "0.008 to 0.017", "unit": "µM"}]}, {"smiles": "Oc1cc(Cl)ccc1Oc1ccc(Cl)cc1Cl", "note": "[Triclosan]", "values": [{"measurement": "LD50", "setting": "[12]", "result": 29, "unit": "mg/kg"}]}]}
